Experimental data as given in the NIST ThermoML archive (doi:10.1016/j.jct.2016.08.034).
Numbers after ± are expanded uncertainties.

Conditions: Crystal; DTA

## C=CC(=O)N1CCC[C@@H](n2nc(-c3ccc(Oc4ccccc4)cc3)c3c(N)ncnc32)C1 [Ibrutinib]
  Normal melting temperature: 153.13 ± 1.1 °C
